Laboratory results: the supplement of paper PMC7840683
± gives the standard deviation of the averaged measurements.

Test system: HepaRG
Assay: LDH release cytotoxicity, % of total lysis control; higher = more cytotoxic
Conditions: 48 h
Method in brief: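 Duplicate wells of single-lot HepaRG cells, grown on collagen I-coated 96-well plates, received eight-point half-log series of test chemicals with 100 µM as the top concentration. Exposure lasted 48 h in serum-free induction medium with 0.5% DMSO, while total lysis wells received 0.1% Triton X. Resorufin fluorescence (CytoTox-ONE, Tecan Safire) was used to quantify LDH leaked into 50 µL of spent medium. Values for percent cytotoxicity were normalized to on-plate vehicle and total lysis controls and averaged across the duplicates.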

SMILES	LDH release cytotoxicity (0.03162 µM) [%]	LDH release cytotoxicity (0.1 µM) [%]	LDH release cytotoxicity (0.3162278 µM) [%]	LDH release cytotoxicity (1 µM) [%]	LDH release cytotoxicity (3.16228 µM) [%]	LDH release cytotoxicity (10 µM) [%]	LDH release cytotoxicity (31.6228 µM) [%]	LDH release cytotoxicity (100 µM) [%]	LDH release cytotoxicity (0.031623 µM) [%]	LDH release cytotoxicity (0.316228 µM) [%]
CSc1nnc(C(C)(C)C)c(=O)n1N [Metribuzin]	-0.754 ± 0.83	0.58 ± 1	-0.959 ± 0.2	-1.09 ± 0.56	-1.24 ± 0.2	-0.985 ± 0.14	-0.751 ± 0.37	0.317 ± 0.26	–	–
CC1(C)NC(=O)NC1=O [5,5-Dimethylhydantoin]	-2.18 ± 0.37	-2.28 ± 1	-2.14 ± 0.96	-3.5 ± 0.27	-1.38 ± 0.42	-1.82 ± 0.26	-1.07 ± 0.056	1.93 ± 1.1	–	–
c1ccc(C(OC2CCCN(CCc3ccc4c(c3)OCO4)C2)c2ccccc2)cc1 (configuration not stated) [Zamifenacin]	-1.023 ± 0.0016	-1.51 ± 0.059	-1.31 ± 0.77	-1.54 ± 0.46	-1.68 ± 1.4	-1.11 ± 0.43	2 ± 0.19	51.7 ± 1.1	–	–
CCOP(=O)(OCC)Oc1nc(Cl)c(Cl)cc1Cl [Chlorpyrifos oxon]	-1.8 ± 0.21	-1.33 ± 0.45	-1.43 ± 0.73	-1.55 ± 0.93	-0.451 ± 0.67	0.221 ± 0.3	0.828 ± 0.99	2.9 ± 1.2	–	–
CNC(C)=O [N-Methylacetamide]	-1.43 ± 0.55	-0.843 ± 0.23	-1.8 ± 0.64	-2.12 ± 0.12	-2.26 ± 0.74	-2.1 ± 0.54	-2.47 ± 0.73	34 ± 4.3	–	–
Nc1nc(N)nc(NC2CC2)n1 [Cyromazine]	-1.4 ± 0.21	-0.914 ± 1.1	-0.958 ± 0.84	-1.75 ± 0.58	-1.74 ± 0.52	-1.14 ± 0.16	-1.52 ± 0.36	0.201 ± 0.23	–	–
CCCCCCCCCCC [Undecane]	–	-0.1 ± 0.21	–	-2.3 ± 0.12	-2.08 ± 1.2	-0.723 ± 1.2	-0.989 ± 1.3	1.06 ± 0.61	-1.34 ± 0.15	-2.37 ± 1.8
CC(C)=CCC/C(C)=C/CO [Geraniol]	-2.2 ± 0.9	-2.89 ± 0.23	-2.68 ± 0.32	-2.72 ± 0.9	-2.26 ± 0.81	-1.87 ± 0.88	-1.12 ± 0.87	-0.773 ± 0.42	–	–
O=C1c2ccccc2C(=O)N1SC(Cl)(Cl)Cl [Folpet]	–	-2.6 ± 0.32	–	-1.65 ± 1.3	-1.73 ± 0.14	-1.49 ± 0.98	-0.653 ± 0.48	-0.43 ± 1.1	0.571 ± 0.94	-1.27 ± 0.63
COc1ccc2sc(C(=O)Nc3nnn[nH]3)c(OC(C)C)c2c1 [CI-959]	-0.617 ± 0.98	-2.08 ± 0.33	-1.65 ± 0.028	-1.45 ± 0.29	-2.51 ± 0.029	-2.33 ± 0.67	3.57 ± 1.1	9.3 ± 1.3	–	–
CC(C)C(=O)Nc1ccc([N+](=O)[O-])c(C(F)(F)F)c1 [Flutamide]	-0.977 ± 0.81	-1.06 ± 0.19	-1.63 ± 1.3	-1.92 ± 1.5	-1.23 ± 0.22	0.0752 ± 0.3	2.14 ± 1.3	13.6 ± 7.4	–	–
O=C1OC(c2ccc(O)cc2)(c2ccc(O)cc2)c2ccccc21 [Phenolphthalein]	-0.731 ± 0.29	-1.59 ± 0.42	-0.412 ± 1	-1.68 ± 1	-0.391 ± 0.89	0.41 ± 0.52	0.57 ± 0.34	10.5 ± 2	–	–
NCC1(Cc2noc(=O)[nH]2)CCCCC1	-1.45 ± 0.35	-1.66 ± 0.47	-1.14 ± 0.84	-1.29 ± 0.97	-1.26 ± 0.87	-1.72 ± 0.14	-2.07 ± 0.18	17.4 ± 1.5	–	–
Nc1nc(N)c2nc(CNc3ccc(C(=O)NC(CCC(=O)O)C(=O)O)cc3)cnc2n1 (configuration not stated) [Aminopterin]	-11.8 ± 0.096	-7.61 ± 0.6	-7.45 ± 1.3	-7.83 ± 0.65	-7.31 ± 0.2	-9.44 ± 0.67	-9.84 ± 0.9	-9.19 ± 0.42	–	–
CSC(C)=NOC(=O)N(C)SN(C)C(=O)ON=C(C)SC [Thiodicarb]	0.264 ± 0.45	0.37 ± 0.55	-0.268 ± 0.33	0.546 ± 0.75	0.811 ± 0.23	1.07 ± 0.71	1.06 ± 0.2	1.18 ± 0.48	–	–
CC(C)(C)C(O)C(Cc1ccc(Cl)cc1)n1cncn1 (configuration not stated) [Paclobutrazol]	-0.9138 ± 0.0047	-1.5 ± 0.066	-1.02 ± 0.15	-1.49 ± 1.2	-1.96 ± 1	-1.1 ± 0.17	-1.36 ± 0.77	-0.278 ± 0.059	–	–
Cc1ccc(C(C)C)c(O)c1 [Thymol]	-0.805 ± 1.1	-0.378 ± 0.63	-1.08 ± 0.33	-0.734 ± 0.81	-1.25 ± 0.71	-0.124 ± 0.09	0.381 ± 0.15	1.26 ± 0.35	–	–
CC(C)(O)c1ccc(CNC(=O)c2cccnc2Oc2ccc3nonc3c2)cc1	-0.138 ± 0.4	-0.0235 ± 1.2	-1.43 ± 0.089	-1.1 ± 0.77	-0.724 ± 0.6	-0.975 ± 0.052	-1.98 ± 0.84	-2.05 ± 0.18	–	–
CS(=O)(=O)NC(=O)c1cc(Oc2ccc(C(F)(F)F)cc2Cl)ccc1[N+](=O)[O-] [Fomesafen]	-1.12 ± 1.1	-1.48 ± 0.59	0.3 ± 0.32	-0.63 ± 0.72	-0.773 ± 0.02	0.708 ± 0.54	0.985 ± 0.17	3.41 ± 0.9	–	–
